Measurements taken from patent US12492195B2, “Preparation method for and crystal form of 3-aryloxy-3-five-membered heteroaryl-propylamine compound” (Zhangzhou Pien Tze Huang Pharmaceutical Co., Ltd., priority 2020, dated 2025).

Experiments:
[1] = target: T1, human TRPA1 channel (Homo sapiens, UniProt O75762); experiment: manual patch clamp detection of TRPA1 inhibitory activity; assay type: cell-based
T1 construct: expressed in transfected cells
Protocol: The stably transfected HEK293 cell line stably expressing human TRPA1 channel was placed in T75 culture flask with DMEM medium containing 15 μg/mL Blasticidin S HCl, 200 μg/mL Hygromycin B and 10% FBS, and cultured in an incubator in 5% CO2 at 37° C. When the cell density reached about 80%, the culture medium was removed, the residue was rinsed once with phosphate buffered saline (PBS) without calcium and magnesium. 2 mL of Trypsin was added to digest for 2 minutes, and 8 mL of culture medium was added to terminate the digestion. The cells were collected to 15 mL centrifuge tube and centrifuged at 800 rpm for 3 min. After the supernatant was removed, the cells were added to appropriate volume of extracellular fluid for re-suspending.
In manual patch clamp detection, HEKA system (Patch Master software) was used together with EPC-10 amplifier to record the whole cell current of TRPA1 stably transfected cell line at room temperature. […]
The record of data and the export of current amplitude measurement were carried out by Patch Master software. […] The original current data were corrected by software for leakage reduction, and the hTRPA1 current amplitude was measured at ±100 mV. The compound dose-effect curve and IC50 were fitted and calculated by GraphPad Prism 5.02 (GraphPad Sofhvare, San Diego, CA).

[2] = system: C57 mice; experiment: hot plate pain model in mice; assay type: in vivo; settings: 10 mg/kg intraperitoneal, hot plate 55° C.
Protocol: SPF-grade C57 male mice were placed at hot plate with constant 55±0.1° C. […] If the pain reaction of mice was observed, the mice were taken out immediately to prevent mice from scalding. […] Appropriate amount of test compounds were added into required volume of physiological saline and fully suspended, and the concentration of the drug compound was prepared as 1 mg/ml. The standard volume of administration to mice was 10 ml/kg (or 0.1 ml/10 g). The administration mode was intraperitoneal administration. […] The administration volume was 10 ml/kg. […] Hot plate observation indicator is the time latency of mice on the hot plate at 55±0.1° C. Measurement and recording were conducted at 3 h before administration and 15 min, 30 min, and 60 min after administration. Maximum possible effect (MPE) % was used to evaluate analgesic effect of each compound, i.e., MPE %=[(Post drug latency-baseline latency)/(30-baseline latency)]×100. MPE % at different time points was recorded. The higher the value of MPE % was, the stronger the analgesic effect of the compound was.

[3] = target: T2, TRPA1 (Mus musculus, UniProt Q8BLA8); experiment: IonWorks Barracuda (IWB) automated patch clamp detection of TRPA1 inhibitory activity; assay type: cell-based
T2 construct: expressed in transfected cells
Protocol: IonWorks Barracuda (IWB) automated patch clamp detection was used as test method: HEK293 cells stably expressing TRPA1 were placed in the T175 culture flask with DMEM medium containing 15 μg/mL Blasticidin S HCl, 200 μg/mL Hygromycin B and 10% FBS, and cultured in an incubator in 5% CO2 at 37° C. When the cell density reached about 80%, the culture medium was removed, the residue was rinsed once with phosphate buffered saline (PBS) without calcium and magnesium. 3 mL of Trypsin was added to digest for 2 min, 7 mL of culture medium was added to terminate the digestion. The cells were collected to 15 mL centrifuge tube and centrifuged at 800 rpm for 3 min. After the supernatant was removed, the cells were added to appropriate volume of extracellular fluid for re-suspending, and the cell density was controlled at 2-3×10^6/mL for IWB experiment. The formulation of extracellular fluid (in mM) was 140 NaCl, 5 KCl, 1 MgCl2, 10 HEPES, 0.5 EGTA, 10 Glucose (pH 7.4); the formulation of intracellular fluid (in mM) was 140 CsCl, 10 HEPES, 5 EGTA, 0.1 CaCl2), 1 MgCl2 (pH 7.2). 28 mg/mL of amphotericin B was freshly prepared with DMSO on the day of experiment, and then final concentration of 0.1 mg/mL of that was prepared with intracellular fluid.
Population patch clamp (PPC) plate was used in IWB experiment. The entire detection process was automatically carried out by the instrument. […]
The record of data and the export of current amplitude measurement were carried out by IWB software (version 2.5.3, Molecular Devices Corporation. Union City, CA). No statistics was recorded for wells with sealing impedance lower than 20 MΩ. […] TRPA1 current amplitude was measured at ±100 mV. […] The dose-effect curve of compounds and IC50 were fitted and calculated by GraphPad Prism 5.02 (GraphPad Software, San Diego, CA).

T1 sequence (O75762 whole entry): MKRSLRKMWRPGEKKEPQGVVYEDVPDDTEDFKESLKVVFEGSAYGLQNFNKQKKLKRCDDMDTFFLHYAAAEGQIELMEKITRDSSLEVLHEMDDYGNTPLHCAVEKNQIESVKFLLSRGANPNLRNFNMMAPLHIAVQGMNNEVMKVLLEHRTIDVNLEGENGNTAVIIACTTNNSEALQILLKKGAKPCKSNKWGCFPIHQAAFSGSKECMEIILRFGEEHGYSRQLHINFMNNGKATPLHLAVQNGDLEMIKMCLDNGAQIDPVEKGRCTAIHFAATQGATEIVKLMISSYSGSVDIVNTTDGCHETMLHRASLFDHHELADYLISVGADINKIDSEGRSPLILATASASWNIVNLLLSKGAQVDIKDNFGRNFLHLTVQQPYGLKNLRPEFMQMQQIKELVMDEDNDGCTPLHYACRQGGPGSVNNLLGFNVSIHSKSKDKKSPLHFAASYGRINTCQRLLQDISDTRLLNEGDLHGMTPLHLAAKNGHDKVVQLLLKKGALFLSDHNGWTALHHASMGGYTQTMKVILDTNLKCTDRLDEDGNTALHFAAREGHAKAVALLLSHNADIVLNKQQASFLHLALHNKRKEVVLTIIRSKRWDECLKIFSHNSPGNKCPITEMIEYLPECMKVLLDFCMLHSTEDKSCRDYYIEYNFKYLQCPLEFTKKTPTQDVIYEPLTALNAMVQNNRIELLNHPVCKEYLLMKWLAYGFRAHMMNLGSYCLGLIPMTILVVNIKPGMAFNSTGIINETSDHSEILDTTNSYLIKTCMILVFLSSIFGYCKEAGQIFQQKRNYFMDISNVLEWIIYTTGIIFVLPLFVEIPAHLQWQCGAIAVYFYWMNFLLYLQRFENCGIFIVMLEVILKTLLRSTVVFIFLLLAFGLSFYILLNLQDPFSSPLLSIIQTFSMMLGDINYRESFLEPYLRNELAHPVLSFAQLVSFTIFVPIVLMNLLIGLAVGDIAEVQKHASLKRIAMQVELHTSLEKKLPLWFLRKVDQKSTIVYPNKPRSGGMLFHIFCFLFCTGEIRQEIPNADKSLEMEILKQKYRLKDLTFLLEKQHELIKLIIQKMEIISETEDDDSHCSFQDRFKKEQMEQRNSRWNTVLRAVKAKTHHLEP
T2 sequence (Q8BLA8 whole entry): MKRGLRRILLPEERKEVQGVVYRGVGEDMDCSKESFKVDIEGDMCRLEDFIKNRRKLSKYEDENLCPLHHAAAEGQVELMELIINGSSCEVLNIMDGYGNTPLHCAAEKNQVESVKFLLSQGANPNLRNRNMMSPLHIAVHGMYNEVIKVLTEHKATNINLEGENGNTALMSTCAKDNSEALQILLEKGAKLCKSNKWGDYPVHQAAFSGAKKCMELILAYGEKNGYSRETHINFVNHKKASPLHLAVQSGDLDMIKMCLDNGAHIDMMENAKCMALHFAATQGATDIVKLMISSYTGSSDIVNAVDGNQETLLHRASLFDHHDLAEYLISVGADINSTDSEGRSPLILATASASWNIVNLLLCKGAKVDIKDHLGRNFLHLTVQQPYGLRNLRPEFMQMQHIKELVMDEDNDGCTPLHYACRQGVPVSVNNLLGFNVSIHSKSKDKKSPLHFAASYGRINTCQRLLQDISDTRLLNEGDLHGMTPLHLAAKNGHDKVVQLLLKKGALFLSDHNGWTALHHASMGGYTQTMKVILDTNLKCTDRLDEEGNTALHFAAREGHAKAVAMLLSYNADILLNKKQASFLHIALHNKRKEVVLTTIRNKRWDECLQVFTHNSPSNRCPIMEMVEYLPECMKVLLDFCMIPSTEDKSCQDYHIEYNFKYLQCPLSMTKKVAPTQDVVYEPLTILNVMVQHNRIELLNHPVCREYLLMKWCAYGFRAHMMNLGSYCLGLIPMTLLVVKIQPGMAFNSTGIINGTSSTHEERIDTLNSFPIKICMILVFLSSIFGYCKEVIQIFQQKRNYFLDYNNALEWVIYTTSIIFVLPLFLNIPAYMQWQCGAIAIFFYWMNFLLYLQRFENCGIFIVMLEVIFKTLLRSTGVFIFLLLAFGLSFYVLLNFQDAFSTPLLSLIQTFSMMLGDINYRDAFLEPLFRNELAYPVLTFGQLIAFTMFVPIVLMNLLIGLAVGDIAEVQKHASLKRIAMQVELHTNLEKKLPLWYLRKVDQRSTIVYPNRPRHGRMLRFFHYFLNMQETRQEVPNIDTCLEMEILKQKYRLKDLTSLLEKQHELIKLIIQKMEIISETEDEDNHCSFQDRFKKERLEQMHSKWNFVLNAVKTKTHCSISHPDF

| Structure (SMILES) | ratio of IC50 of the S configuration of duloxetine to the IC50 of the compound [1] | analgesic activity compared with the positive controls gabapentin and duloxetine [2] | activity ratio, IC50 of compound C1/IC50 of compound IC-10 [3] | IC50 ([3]; HEK293 cells stably expressing TRPA1, AITC-induced current) |
| --- | --- | --- | --- | --- |
| CNCC[C@H](Oc1cccc2ccoc12)c1cccs1 [IC-1, (S)-3-(Benzofuran-7-yloxy)-N-methyl-3-(thiophen-2-yl)propan-1-amine] | 10.14 | stronger than those of gabapentin and duloxetine | – | – |
| CNCC[C@H](Oc1cccc2c1CCC2)c1cccs1 [IC-10] | 3.9 | stronger than those of gabapentin and duloxetine | about 2.5 times | – |
| CNCC[C@H](Oc1cccc2ccccc12)c1cccs1 [Duloxetine (S configuration), Duloxetine, reference compound] | – | – | – | 10 to 20 µM |
